Measured values reported in PubChem BioAssay (NCI).
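Growth conditions: 96-well plates. Treatment: test compound, 48 hours, 5 concentrations. Analysis: linear interpolation between bracketing concentrations; unreached endpoints set to highest concentration. At the GI50, growth is halved. At the TGI there is no net growth.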

Key:
Experiment in all cases: growth of human tumour cells (NCI), 48 h
[1] = tested on: MOLT-4 leukemia
[2] = tested on: NCI-H226 lung
[3] = tested on: NCI-H23 lung
[4] = tested on: NCI-H460 lung
[5] = tested on: NCI-H522 lung
[6] = tested on: NCI/ADR-RES ovarian
[7] = tested on: OVCAR-3 ovarian
[8] = tested on: OVCAR-4 ovarian
[9] = tested on: OVCAR-5 ovarian
[10] = tested on: OVCAR-8 ovarian
[11] = tested on: PC-3 prostate
[12] = tested on: RPMI-8226 leukemia
[13] = tested on: RXF 393 renal
[14] = tested on: SF-268 CNS
[15] = tested on: SF-295 CNS
[16] = tested on: SF-539 CNS
[17] = tested on: SK-MEL-2 melanoma
[18] = tested on: SK-MEL-28 melanoma
[19] = tested on: SK-MEL-5 melanoma
[20] = tested on: SK-OV-3 ovarian
[21] = tested on: SN12C renal
[22] = tested on: SNB-19 CNS
[23] = tested on: SNB-75 CNS
[24] = tested on: SR leukemia
[25] = tested on: T-47D breast
[26] = tested on: TK-10 renal
[27] = tested on: U251 CNS
[28] = tested on: UACC-257 melanoma
[29] = tested on: UACC-62 melanoma
[30] = tested on: UO-31 renal

CC1=C2C(=C[C@@](C)(COCOCCCl)[C@@H]2O)C(=O)[C@](C)(O)C12CC2
TGI [1]: > 48300 nM
GI50 [2]: 845 nM
TGI [2]: 4010 nM
GI50 [3]: 105 nM
TGI [3]: 304 nM
GI50 [4]: 113 nM
TGI [4]: 656 nM
GI50 [5]: 184 nM
TGI [5]: 495 nM
GI50 [6]: 160 nM
TGI [6]: 438 nM
GI50 [7]: 265 nM
TGI [7]: 765 nM
GI50 [8]: 265 nM
TGI [8]: 860 nM
GI50 [9]: 178 nM
TGI [9]: 1070 nM
GI50 [10]: 211 nM
TGI [10]: 790 nM
GI50 [11]: 230 nM
GI50 [12]: 3750 nM
TGI [12]: > 58300 nM
GI50 [13]: 154 nM
TGI [13]: 351 nM
GI50 [14]: 305 nM
TGI [14]: 1700 nM
GI50 [15]: 234 nM
TGI [15]: 7760 nM
GI50 [16]: 202 nM
TGI [16]: 447 nM
GI50 [17]: 184 nM
TGI [17]: 350 nM
GI50 [18]: 389 nM
TGI [18]: 1310 nM
GI50 [19]: 209 nM
TGI [19]: 499 nM
GI50 [20]: 415 nM
TGI [20]: 2170 nM
GI50 [21]: 299 nM
TGI [21]: 1200 nM
GI50 [22]: 346 nM
TGI [22]: 2460 nM
GI50 [23]: 241 nM
TGI [23]: 1250 nM
GI50 [24]: 64.7 nM
TGI [24]: > 100000 nM
GI50 [25]: 506 nM
TGI [25]: 5690 nM
GI50 [26]: 429 nM
GI50 [27]: 113 nM
TGI [27]: 19900 nM
GI50 [28]: 647 nM
TGI [28]: 3970 nM
GI50 [29]: 198 nM
TGI [29]: 429 nM
GI50 [30]: 186 nM
TGI [30]: 549 nM
